For nine compounds, Kd results are on record in patent US20260098061A1, “EPHA2-BINDING PENDING PEPTIDE AND COMPOSITION COMPRISING SAME” (PeptiDream Inc., priority 2022, published 2026).

The assay deals with T1, Recombinant Human EphA2 Fc Protein (Homo sapiens, UniProt P29317).
T1 construct: purchased Elabscience
Briefly: SPR interaction analysis (Biacore T200), kinetics of peptides against EphA2. Type of assay: binding. The note with it: Recombinant Human EphA2 Fc Protein captured by Human Antibody Capture kit; single-cycle kinetics; 25° C.; HBS-P+ buffer with 1% DMSO. The essentials:
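KD derived from ka and kd, fitted on baseline-subtracted sensorgrams from single-cycle kinetics of five peptide dilutions. Running buffer: HBS-P+ (pH 7.4) plus 1% DMSO, 25° C, Biacore T200. Recombinant human EphA2-Fc held on an antibody capture surface.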

Numbered stars: 1 amine (or outer) side, 2 acyl side, 3 side chain; on linkers, the order of the positions; unused ones are H or OH. Bridge positions count the residues as written; N and C are the ends. Square brackets hold non-standard residues; d marks the D form. Side chains are listed from the residue outwards. Peptide text beside a SMILES is read from it. * marks the point of attachment. NH(1-deoxy-D-glucityl) = OC[C@@H](O)[C@@H](O)[C@H](O)[C@@H](O)CN*; Piperazinyl(4-CH2COOH) = O=C(O)CN1CCN(*)CC1; Trp(1-Me) = Cn1cc(C[C@H](N)C(=O)O)c2ccccc21; NMe3Pal = CN[C@@H](Cc1cccnc1)C(=O)O; NMeF = CN[C@@H](Cc1ccccc1)C(=O)O; Gly(cBu) = N[C@H](C(=O)O)C1CCC1; NMeE = CN[C@@H](CCC(=O)O)C(=O)O; Aad = N[C@@H](CCCC(=O)O)C(=O)O; NMeN = CN[C@@H](CC(N)=O)C(=O)O; CO = O=C([*:1])[*:2]

Consider `CC(C)C[C@@H]1NC(=O)[C@H](CC(N)=O)NC(=O)[C@H](Cc2cccnc2)N(C)C(=O)[C@@H](C)NC(=O)CSC[C@@H](C(N)=O)NC(=O)[C@H](CCCC(N)=O)NC(=O)[C@H]([C@@H](C)O)NC(=O)[C@H](Cc2cn(C)c3ccccc23)NC(=O)[C@H](CCCCNC(=O)N2CCN(CC(=O)O)CC2)NC(=O)[C@H](Cc2cn(C)c3ccccc23)NC(=O)[C@H](CCC(=O)O)N(C)C(=O)[C@H](CCCC(N)=O)NC1=O` [PDC_EphA2-00010008, da-Me3Py-N-L-Hgn-MeE-W1Me-KCOpipzaa-W1Me-T-Hgn-C-NH2] ({CH2CO}-[dA][NMe3Pal]NL[Aad](NH2)[NMeE][Trp(1-Me)]K([CO-Piperazinyl(4-CH2COOH)])[Trp(1-Me)]T[Aad](NH2)C-NH2; thioether N-12), for which the Kd (usually the free concentration of one partner at which half of the binding sites on the other are occupied at equilibrium, for simple one-to-one binding) is less than 1 nM.
On to `C[C@H]1NC(=O)CSC[C@@H](C(N)=O)NC(=O)[C@H](CCCC(N)=O)NC(=O)[C@H]([C@@H](C)O)NC(=O)[C@H](Cc2cn(C)c3ccccc23)NC(=O)[C@H](CCCCNC(=O)N2CCN(CC(=O)O)CC2)NC(=O)[C@H](Cc2cn(C)c3ccccc23)NC(=O)[C@H](CCC(=O)O)N(C)C(=O)[C@H](CCCC(N)=O)NC(=O)[C@H](C2CCC2)NC(=O)[C@H](CC(N)=O)NC(=O)[C@H](Cc2cccnc2)N(C)C1=O` [PDC_EphA2-00010009, da-Me3Py-N-Cbg-Hgn-MeE-W1Me-KCOpipzaa-W1Me-T-Hgn-C-NH2] ({CH2CO}-[dA][NMe3Pal]N[Gly(cBu)][Aad](NH2)[NMeE][Trp(1-Me)]K([CO-Piperazinyl(4-CH2COOH)])[Trp(1-Me)]T[Aad](NH2)C-NH2; thioether N-12), for which the Kd was less than 1 nM.
In the case of `CC(C)[C@@H]1NC(=O)[C@H](Cc2cn(C)c3ccccc23)NC(=O)[C@H](CC(N)=O)NC(=O)[C@H](CCCC(N)=O)NC(=O)[C@H](C2CCC2)NC(=O)[C@H](CC(N)=O)NC(=O)[C@H](Cc2cccnc2)N(C)C(=O)[C@@H](C)NC(=O)CSC[C@@H](C(N)=O)NC(=O)[C@H](CCCC(N)=O)NC(=O)[C@H]([C@@H](C)O)NC(=O)[C@H](Cc2cn(C)c3ccccc23)NC1=O` [PDC_EphA2-00010010, da-Me3Py-N-Cbg-Hgn-N-W1Me-V-W1Me-T-Hgn-C-NH2] ({CH2CO}-[dA][NMe3Pal]N[Gly(cBu)][Aad](NH2)N[Trp(1-Me)]V[Trp(1-Me)]T[Aad](NH2)C-NH2; thioether N-12), the Kd was less than 1 nM.
Consider `CC(C)[C@@H]1NC(=O)[C@H](Cc2cn(C)c3ccccc23)NC(=O)[C@H](CC(N)=O)N(C)C(=O)[C@H](CCCC(N)=O)NC(=O)[C@H](C2CCC2)NC(=O)[C@H](CC(N)=O)NC(=O)[C@H](Cc2cccnc2)N(C)C(=O)[C@@H](C)NC(=O)CSC[C@@H](C(N)=O)NC(=O)[C@H](CCCC(N)=O)NC(=O)[C@H]([C@@H](C)O)NC(=O)[C@H](Cc2cn(C)c3ccccc23)NC1=O` [PDC_EphA2-00010011, da-Me3Py-N-Cbg-Hgn-MeN-W1Me-V-W1Me-T-Hgn-C-NH2] ({CH2CO}-[dA][NMe3Pal]N[Gly(cBu)][Aad](NH2)[NMeN][Trp(1-Me)]V[Trp(1-Me)]T[Aad](NH2)C-NH2; thioether N-12), for which the Kd was less than 1 nM.
The same measure for `CC(C)[C@@H]1NC(=O)[C@H](Cc2cn(C)c3ccccc23)NC(=O)[C@H](Cc2cccnc2)N(C)C(=O)[C@H](CCCC(N)=O)NC(=O)[C@H](C2CCC2)NC(=O)[C@H](CC(N)=O)NC(=O)[C@H](Cc2cccnc2)N(C)C(=O)[C@@H](C)NC(=O)CSC[C@@H](C(N)=O)NC(=O)[C@H](CCCC(N)=O)NC(=O)[C@H]([C@@H](C)O)NC(=O)[C@H](Cc2cn(C)c3ccccc23)NC1=O` [PDC_EphA2-00010012, da-Me3Py-N-Cbg-Hgn-Me3Py-W1Me-V-W1Me-T-Hgn-C-NH2] ({CH2CO}-[dA][NMe3Pal]N[Gly(cBu)][Aad](NH2)[NMe3Pal][Trp(1-Me)]V[Trp(1-Me)]T[Aad](NH2)C-NH2; thioether N-12): less than 1 nM.
Next, `CC(C)[C@@H]1NC(=O)[C@H](Cc2cn(C)c3ccccc23)NC(=O)[C@H](CC(N)=O)N(C)C(=O)[C@H](CCCC(N)=O)NC(=O)[C@H](C2CCC2)NC(=O)[C@H](CC(N)=O)NC(=O)[C@H](Cc2ccccc2)N(C)C(=O)[C@@H](C)NC(=O)CSC[C@@H](C(N)=O)NC(=O)[C@H](CCCC(N)=O)NC(=O)[C@H]([C@@H](C)O)NC(=O)[C@H](Cc2cn(C)c3ccccc23)NC1=O` [PDC_EphA2-00013693, da-MeF-N-Cbg-Hgn-MeN-W1Me-V-W1Me-T-Hgn-C-NH2] ({CH2CO}-[dA][NMeF]N[Gly(cBu)][Aad](NH2)[NMeN][Trp(1-Me)]V[Trp(1-Me)]T[Aad](NH2)C-NH2; thioether N-12): less than 1 nM.
Consider `C[C@H]1NC(=O)CSC[C@@H](C(N)=O)NC(=O)[C@H](CCCC(N)=O)NC(=O)[C@H]([C@@H](C)O)NC(=O)[C@H](Cc2cn(C)c3ccccc23)NC(=O)[C@H](CCC(=O)NC[C@H](O)[C@@H](O)[C@H](O)[C@H](O)CO)NC(=O)[C@H](Cc2cn(C)c3ccccc23)NC(=O)[C@H](CC(N)=O)N(C)C(=O)[C@H](CCCC(N)=O)NC(=O)[C@H](C2CCC2)NC(=O)[C@H](CC(N)=O)NC(=O)[C@H](Cc2ccccc2)N(C)C1=O` [PDC_EphA2-00013703, da-MeF-N-Cbg-Hgn-MEN-W1Me-Qglucamine-W1Me-T-Hgn-C-NH2] ({CH2CO}-[dA][NMeF]N[Gly(cBu)][Aad](NH2)[NMeN][Trp(1-Me)]E(NH(1-deoxy-D-glucityl))[Trp(1-Me)]T[Aad](NH2)C-NH2; thioether N-12), for which the Kd was less than 1 nM.
`C[C@H]1NC(=O)CSC[C@@H](C(N)=O)NC(=O)[C@H](CCCC(N)=O)NC(=O)[C@H]([C@@H](C)O)NC(=O)[C@H](Cc2cn(C)c3ccccc23)NC(=O)[C@H](CCC(=O)NC[C@H](O)[C@@H](O)[C@H](O)[C@H](O)CO)NC(=O)[C@H](Cc2cn(C)c3ccccc23)NC(=O)[C@H](Cc2cccnc2)N(C)C(=O)[C@H](CCCC(N)=O)NC(=O)[C@H](C2CCC2)NC(=O)[C@H](CC(N)=O)NC(=O)[C@H](Cc2ccccc2)N(C)C1=O` [PDC_EphA2-00013704, da-MeF-N-Cbg-Hgn-Me3Py-W1Me-Qglucamine-W1Me-T-Hgn-C-NH2] ({CH2CO}-[dA][NMeF]N[Gly(cBu)][Aad](NH2)[NMe3Pal][Trp(1-Me)]E(NH(1-deoxy-D-glucityl))[Trp(1-Me)]T[Aad](NH2)C-NH2; thioether N-12): the Kd is less than 1 nM.
The same measure for `C[C@H]1NC(=O)CSC[C@@H](C(N)=O)NC(=O)[C@H](CCCC(N)=O)NC(=O)[C@H]([C@@H](C)O)NC(=O)[C@H](Cc2cn(C)c3ccccc23)NC(=O)[C@H](CCC(=O)NC[C@H](O)[C@@H](O)[C@H](O)[C@H](O)CO)NC(=O)[C@H](Cc2cn(C)c3ccccc23)NC(=O)[C@H](Cc2cccnc2)N(C)C(=O)[C@H](CCCC(N)=O)NC(=O)[C@H](C2CCC2)NC(=O)[C@H](CC(N)=O)NC(=O)[C@H](Cc2cccnc2)N(C)C1=O` [PDC_EphA2-00013705, da-Me3Py-N-Cbg-Hgn-Me3Py-W1Me-Qglucamine-W1Me-T-Hgn-C-NH2] ({CH2CO}-[dA][NMe3Pal]N[Gly(cBu)][Aad](NH2)[NMe3Pal][Trp(1-Me)]E(NH(1-deoxy-D-glucityl))[Trp(1-Me)]T[Aad](NH2)C-NH2; thioether N-12): less than 1 nM.
